Consider one molecule from US6326395A, “Antifungal activity of dicationic molecules” (priority 1999, dated 2001).

Where a name gives a salt, the structure may show the parent alone.

The subject of assay [1] is Candida albicans. Kind of assay: in vitro antifungal susceptibility testing (MIC, MFC; broth macrodilution), Tables 1-7. It is filed as cell-based.
For assay [2], the system named is Cryptococcus neoformans. The assay is described as above. Format: cell-based.
The subject of assay [3] is C. tropicalis 110.96. Nature of the assay: antifungal susceptibility testing (MIC, MFC), extended spectrum. Format: cell-based. As to conditions: Candida tropicalis. The source says: (§1) Antifungal susceptibility testing for compounds set forth in Examples 1-20 is discussed hereinbelow. The fungi that were employed included two reference strains, C. neoformans var. neoformans H99 and C. albicans A39 and the following clinical isolates: (1) two strains of fluconazole-resistant C. neoformans var. neoformans (135.95 and 114.96); (2) two strains of C. neoformans var. gattii (119.95 and 114.95); (3) two strains of fluconazole-resistant C. albicans (102.96 and 103.96); and (4) one strain each of Torulopsis glabrata (142.91), Candida parapsilosis (111.96), Candida krusei (132.91), C. tropicalis (110.96), Candida lusitaniae (111.92), Fusarium solani (152.89), Aspergillus fumigatus (168.95), and Aspergillus flavus (112.96). Antifungal susceptibility testing was performed using an RPMI-1640 medium (Sigma Chemical Co., St. Louis, Mo.) with glutamine, without sodium bicarbonate, and buffered at pH 7.0 with 0.165 M morpholine-propanesulfonic acid (MOPS).
(§2) In vitro susceptibility testing in the form of Minimum Inhibitory Concentration (MIC) experiments were performed using the broth macrodilution method according to the recommendations of the National Committee for Clinical Laboratory Standards (see 1995 manual). The only difference compared to the standardized procedure was the choice of drug dilutions ranging from 100 to 0.09 μg/ml. Briefly, this procedure specifies an inoculum grown at 35° C. and adjusted to a concentration of 0.5-2.5×10^3 CFU/ml with an incubation of the test performed at 35° C. and reading at 48 hours for all yeasts except for C. neoformans which is interpreted at 72 hr.
(§3) Minimum Fungicidal Concentration (MFC) experiments were adapted from a method by McGinnis (McGinnis, M. R., (1980) "Susceptibility testing and bioassay procedure", p. 431, Academic Press, Inc., New York). Briefly, 10 μl aliquots from tubes with growth inhibition were plated onto Sabouraud agar plates. The lowest drug concentration that yielded three or fewer yeasts colonies was recorded as the MFC.
(§4) Antifungal susceptibility testing for compounds set forth in Examples 21-28 is discussed hereinbelow. […]
(§5) Minimum Fungicidal Concentration (MFC) experiments were adapted from a method by McGinnis (McGinnis, M. R., (1980) "Susceptibility testing and bioassay procedure", p.431, Academic Press, Inc., New York). […] The lowest drug concentration that yielded 3 or fewer yeasts colonies was recorded as the MFC. […]

Assay [4] concerns Torulopsis glabrata 142.91. The description is as above. Format: cell-based. The note with it: Nakaseomyces glabratus.
From the text: as §1, §2, §3, §4, §5

In assay [5] the test system is C. neoformans 114.96. The assay is described as above. It is filed as cell-based, C. neoformans var. neoformans. The note with it: Cryptococcus neoformans, C. neoformans 114.96, fluconazole-resistant.
From the text: as §1
In vitro susceptibility testing in the form of Minimum Inhibitory Concentration (MIC) experiments were performed using the broth macrodilution method according to the recommendations of the National Committee for Clinical Laboratory Standards (see 1995 manual). […] Briefly, this procedure specifies an inoculum grown at 35° C. and adjusted to a concentration of 0.5-2.5×10^3 CFU/ml with an incubation of the test performed at 35° C. and reading at 48 hours for all yeasts except for C. neoformans which is interpreted at 72 hr.
Minimum Fungicidal Concentration (MFC) experiments were adapted from a method by McGinnis (McGinnis, M. R., (1980) "Susceptibility testing and bioassay procedure", p. 431, Academic Press, Inc., New York). […] The lowest drug concentration that yielded three or fewer yeasts colonies was recorded as the MFC. […]
as §5

As to `CC(C)NC(=N)c1ccc2nc(-c3ccc4c(c3)Cc3cc(-c5nc6ccc(C(=N)NC(C)C)cc6[nH]5)ccc3-4)[nH]c2c1` [Compound 57, 2,7-Bis[2-(5-N-isopropylamidino)benzimidazoyl]fluorene hydrochloride], the MIC amounted to 0.78 µg/mL in assay [1] (35° C., reading at 48 hours, read-out: MIC80 (Minimum inhibitory concentration 80%)); 0.78 µg/mL in assay [2] (35° C., 72 hr, read-out: MIC80 (Minimum inhibitory concentration 80%)); 0.78 µg/mL in assay [3] (48 hours, read-out: MIC80); 0.78 µg/mL in assay [4] (48 hours, read-out: MIC80); 0.78 µg/mL in assay [5] (72 hr, read-out: MIC80). In addition, the MFC amounted to 1.56 µg/mL in assay [1] (three or fewer colonies, read-out: MFC (Minimum fungicidal concentration)); 0.78 µg/mL in assay [2] (Tables 2-7, three or fewer colonies, read-out: MFC (Minimum fungicidal concentration)); 1.56 µg/mL in assay [3]; 0.78 µg/mL in assay [4]; 0.78 µg/mL in assay [5].
